Our source for the viability values is paper PMC12040169 (PLOS Biology, 2025).

The data set can be described thus: in vitro. As to conditions: human, hela cells, % viability.
For `O=C(CSCc1ccc(Br)cc1)Nc1ccc(S(=O)(=O)N2CCOCC2)cc1` [CBK267845], the viability (commonly a read-out of living cells in per cent, often relative to untreated cells) at 28.5 h, 10 µM turned out to be 97.1%.
Take `COc1ccc(OC)c(NC(=O)CNC(=O)c2ccccc2F)c1` [CBK267846]: the viability at 28.5 h, 10 µM worked out at 91.5%.
Take `COc1ccc(C)cc1S(=O)(=O)N(CC(=O)O)Cc1ccccc1` [CBK267847]: the viability at 28.5 h, 10 µM stood at 108%.
Then `O=C(O)c1cc(-c2ccc(F)cc2)n[nH]1` [CBK267848], with 96.1%.
`CC(=O)Nc1ccc(C(=O)CSc2nnc(C)o2)cc1` [CBK267851]: the viability at 28.5 h, 10 µM turned out to be 107%.
Consider `O=C(OCc1cccc(C(=O)c2ccccc2)c1)c1ccc(-c2nnc(-c3ccccc3)o2)cc1` [CBK267852], for which the viability at 28.5 h, 10 µM is 104%.
In the case of `Nc1nnc(SCC(=O)NCc2ccc3c(c2)OCO3)s1` [CBK267853], the viability at 28.5 h, 10 µM came out at 101%.
`CS(=O)(=O)N(CC(=O)Nc1ccccc1C(F)(F)F)Cc1ccc(Cl)cc1` [CBK267854]: the viability at 28.5 h, 10 µM is 108%.
In the case of `COc1c(C)cc(Br)cc1C(=O)NC(=S)Nc1ccccc1N1CCN(C)CC1` [CBK267855C], the viability at 28.5 h, 10 µM stood at 97.1%.
Regarding `Fc1ccc(OCc2ccc(-c3nnn[nH]3)cc2)cc1` [CBK267859], the viability at 28.5 h, 10 µM stood at 106%.
For the molecule `COC(=O)c1ccccc1NC(=O)CNC(=O)c1ccc(Cl)cc1Cl` [CBK267860], the viability at 28.5 h, 10 µM worked out at 105%.
As for `N#Cc1ccc(N2CCN(CCCNC(=O)Nc3ccccc3)CC2)cc1` [CBK267861], the viability at 28.5 h, 10 µM was 95%.
Then `O=[N+]([O-])c1cccc(S(=O)(=O)NCCSc2ccccc2)c1` [CBK267862], with 94.1%; and `N#CCCn1cc(C(=O)Nc2ccc(C(=O)O)cc2)c(-c2cc3ccccc3o2)n1` [CBK267866], with 96.6%.
For the molecule `Cn1c(SCC(=O)Nc2ccnc3ccccc23)nnc1-c1ccncc1` [CBK267867], the viability at 28.5 h, 10 µM was determined as 105%.
Consider `O=C(NCCSCc1ccco1)Nc1ccc(Cl)cc1` [CBK267869], for which the viability at 28.5 h, 10 µM came to 97.3%.
Then `O=C(NC(=S)Nc1cccc(-c2nc3ncccc3o2)c1)c1ccc(-c2cccc([N+](=O)[O-])c2)o1` [CBK267870], with 83.4%; and `O=C(CSc1nc2ccccc2c2nc3ccccc3n12)Nc1cccc(Cl)c1` [CBK267872], with 94.2%; and `Cc1ncc([N+](=O)[O-])n1Cc1nnc(S)n1C` [CBK267873], with 95.4%.
Then `CCS(=O)(=O)c1nc2ccccc2n1CC(=O)Nc1ccccc1C(=O)OC` [CBK267877], with 90%.
With `Cc1ccccc1CSc1nc2ccc([N+](=O)[O-])cc2[nH]1` [CBK267879], the viability at 28.5 h, 10 µM came out at 96.2%.
In the case of `NCCCNc1ccc(C(=O)Nc2ccc(Cl)cc2)cc1[N+](=O)[O-]` [CBK267880], the viability at 28.5 h, 10 µM was 116%.
On to `COCCCn1c(CCC(=O)O)ccc1-c1ccc(F)cc1` [CBK267886], for which the viability at 28.5 h, 10 µM stood at 104%.
The figure for `Cc1cc(OC(C)C(=O)Nc2ccc(S(=O)(=O)Nc3onc(C)c3C)cc2)cc(C)c1Cl` (stereo not drawn) [CBK267887] is 98.7%; for `CCn1c(COc2ccccc2)nnc1Sc1ccc([N+](=O)[O-])cc1C=O` [CBK267888] it is 105%; for `COc1ccc(S(=O)(=O)N(C)CC(=O)Nc2ccc(C(N)=O)cc2)cc1Cl` [CBK267891] it is 109%.
Turning to `Nc1n[nH]c(SCC(=O)N2CCN(C(c3ccccc3)c3ccccc3)CC2)n1` [CBK267893], the viability at 28.5 h, 10 µM was found to be 86.5%.
Then `COc1ccc(S(=O)(=O)N(C)CC(=O)N2CCOCC2)cc1C` [CBK267898], with 95.8%.
The figure for `S=C1NCN(Cc2ccc3c(c2)OCO3)CN1` [CBK267899] is 87.1%.
The figure for `O=C(CSc1nnc(-c2ccncc2)n1-c1ccccc1)Nc1ccnc2ccccc12` [CBK267900] is 101%; for `O=C(CNC(=O)C1CCCCC1)NNC(=O)c1sc2ccccc2c1Cl` [CBK267903] it is 98.8%.
As for `COc1ccc(NC(=O)CSc2nc(N)cc(O)n2)c([N+](=O)[O-])c1` [CBK267904], the viability at 28.5 h, 10 µM came out at 101%.
Then `O=C(O)CCCC(=O)Nc1cc(C(=O)O)ccc1Cl` [CBK267907], with 116%; and `CCN(CC(=O)Nc1ccc(OC)c(Cl)c1)S(=O)(=O)c1ccc2ccccc2c1` [CBK267910], with 92.9%; and `CC(C)c1nnc(SCc2ccc(CSc3nnc(C(C)C)n3N)cc2)n1N` [CBK267911], with 101%.
The figure for `CCN1CCN(C(=O)CN(CC)S(=O)(=O)c2ccc3ccccc3c2)CC1` [CBK267913] is 101%; for `Cc1ccc(CNC(=O)CSc2nc(N)n[nH]2)cc1` [CBK267914] it is 103%; for `NS(=O)(=O)c1ccc(NC(=O)c2ccc(COc3ccccc3)o2)cc1` [CBK267915] it is 104%.
`COc1ccc(S(=O)(=O)N(C)CC(=O)Nc2ccc(Br)cc2F)cc1Cl` [CBK267916]: the viability at 28.5 h, 10 µM came to 81.3%.
`Cc1cc(C(=O)O)ccc1NC(=O)CCCC(=O)O` [CBK267917]: the viability at 28.5 h, 10 µM came to 90.8%.
For `CCn1cc(C(=O)O)c(=O)c2cc(F)c(N3CCN(C(=S)Nc4ccc(F)c(Cl)c4)CC3)cc21` [CBK267921], the viability at 28.5 h, 10 µM was 97.5%.
Then `CCOc1cc(/C=C(/C#N)c2nc3ccccc3[nH]2)ccc1OCc1ccc(C(=O)O)o1` [CBK267923], with 88.9%.
Then `CCOc1ccc(N(Cc2cc3cc(C)ccc3nc2O)S(=O)(=O)c2ccccc2)cc1` [CBK267924], with 120%.
Regarding `Nc1cc(O)nc(SCC(=O)N2CCN(c3ccccc3)CC2)n1` [CBK267925], the viability at 28.5 h, 10 µM is 86%.
Turning to `O=C(O)Cn1nnc(-c2ccc(C(=O)O)cc2)n1` [CBK267926], the viability at 28.5 h, 10 µM amounted to 85%.
With `N#C/C(=C\c1ccc(N2CCN(c3ccc(F)cc3)CC2)c([N+](=O)[O-])c1)c1nn(-c2ccccc2)c(N)c1C#N` [CBK267927], the viability at 28.5 h, 10 µM came out at 95.7%.
Then `CCn1cc(C(=O)O)c(=O)c2cnc(N3CCN(C(=S)Nc4cc5oc6ccccc6c5cc4OC)CC3)nc21` [CBK267929], with 101%; and `CCn1cc(C(=O)O)c(=O)c2cnc(N3CCN(C(=S)Nc4ccc5c(c4)OCO5)CC3)nc21` [CBK267930], with 90.6%; and `CC(=O)Nc1ccc(S(=O)(=O)NC2(C(F)(F)F)N=C(c3ccccc3)NC2=O)cc1` (stereo not drawn) [CBK267932], with 113%.
On to `CCc1cccc(C)c1NC(=O)CN(c1ccc(Br)c(C)c1)S(C)(=O)=O` [CBK267935], for which the viability at 28.5 h, 10 µM stood at 102%.
For `O=C(CSc1ccc(Cl)cc1)Nc1cccc2nsnc12` [CBK267936], the viability at 28.5 h, 10 µM came to 90.8%.
As to `COc1ccccc1C(=O)Nc1ccccc1N1CCN(C)CC1` [CBK267938], the viability at 28.5 h, 10 µM turned out to be 91.8%.
Take `O=C(NCCOCc1ccc(Cl)cc1)c1cc(-n2cnnc2)ccc1Cl` [CBK267939]: the viability at 28.5 h, 10 µM came to 101%.
`COC(=O)c1ccsc1NC(=O)CN1CCN(Cc2ccc3c(c2)OCO3)CC1` [CBK267940]: the viability at 28.5 h, 10 µM turned out to be 97.6%.
For `COCCCn1c(CCC(=O)O)ccc1-c1cccs1` [CBK267942], the viability at 28.5 h, 10 µM stood at 121%.
Then `CCCc1oc(C(=O)O)cc1CN(CC)CC` [CBK267943C], with 92.1%; and `O=C1CC(C(=O)O)SC(NNC(=O)c2ccccc2)=N1` (stereo not drawn) [CBK267944], with 91.2%; and `CC(C(=O)O)N(c1ccc(Cl)cc1)S(C)(=O)=O` (stereo not drawn) [CBK267945], with 111%.
For the molecule `O=C(CS(=O)(=O)c1ccccc1)Nc1cccc2nsnc12` [CBK267949], the viability at 28.5 h, 10 µM is 97.4%.
On to `O=C(O)C1CCCCC1C(=O)Nc1ccc(S(=O)(=O)N2CCCCC2)cc1` (stereo not drawn) [CBK267950], for which the viability at 28.5 h, 10 µM came out at 109%.
For the molecule `O=c1c2ccccc2[nH]c(=S)n1CCCN1CCC(Cc2ccccc2)CC1` [CBK267952], the viability at 28.5 h, 10 µM is 86.2%.
In the case of `OC(Cn1ccc2ccccc21)Cn1c(Cc2ccccc2)nc2ccccc21` (stereo not drawn) [CBK267954], the viability at 28.5 h, 10 µM came out at 97.7%.
With `CN(C)S(=O)(=O)N(CC(=O)Nc1cccnc1)c1ccccc1` [CBK267958], the viability at 28.5 h, 10 µM amounted to 119%.
Then `O=C(NCCCN1CCCC1)Nc1ccccc1[N+](=O)[O-]` [CBK267959], with 97%; and `Nc1nonc1-c1nc2ccccc2n1Cc1cc2c(cc1Br)OCO2` [CBK267961], with 105%.
For `CCOc1ccc(CNc2ccc(S(N)(=O)=O)cc2)cc1` [CBK267962], the viability at 28.5 h, 10 µM worked out at 89.3%.
`c1ccc2oc(NC3=NCN(Cc4ccc5c(c4)OCO5)CN3)nc2c1` [CBK267964]: the viability at 28.5 h, 10 µM was 95.1%.
As to `N#Cc1ccccc1CSc1nc(N)cc(O)n1` [CBK267967], the viability at 28.5 h, 10 µM is 98.3%.
On to `N#Cc1c(NC(=O)CN2CCN(Cc3ccccc3)CC2)sc2c1CCCC2` [CBK267969], for which the viability at 28.5 h, 10 µM is 99.6%.
`O=C(CN1CCCCC1)Nc1sc2c(c1C(=O)Nc1ccccc1)CCCC2` [CBK267974]: the viability at 28.5 h, 10 µM amounted to 104%.
For `S=C(Nc1ccccc1)N(CCN1CCOCC1)Cc1cccc(Cl)c1` [CBK267975], the viability at 28.5 h, 10 µM was found to be 103%.
The figure for `COc1cc(/C=C/c2[nH]c(=O)[nH]c(=O)c2[N+](=O)[O-])cc(Br)c1OCC(=O)O` [CBK267977] is 91.5%.
Regarding `Cc1cc(OCCCC(=O)Nc2cccc([N+](=O)[O-])c2)cc(C)c1Cl` [CBK267978], the viability at 28.5 h, 10 µM worked out at 97.8%.
On to `CC(Oc1ccc(-c2ccccc2)cc1)C(=O)Nc1ccc(S(N)(=O)=O)cc1` (stereo not drawn) [CBK267979], for which the viability at 28.5 h, 10 µM is 87.2%.
The figure for `CCn1c(SCC(=O)Nc2cccc([N+](=O)[O-])c2)nnc1-c1cc(Br)ccc1O` [CBK267980] is 86%.
For `Cc1ccc([N+](=O)[O-])cc1NC(=O)CN(Cc1ccc(Cl)cc1)S(C)(=O)=O` [CBK267981], the viability at 28.5 h, 10 µM was determined as 87.8%.
With `CS(=O)(=O)N(CC(=O)NCc1ccccn1)Cc1ccc(Cl)cc1` [CBK267982], the viability at 28.5 h, 10 µM is 94.6%.
Then `NC(=O)c1ccccc1NC(=O)CSc1nc(N)cc(N)n1` [CBK267983], with 115%.
